Laboratory results from patent US20130344053A1, “Methods of Modifying Insulin Signaling Using Biliverdin Reductase (BVR) and BVR Derived Peptides” (University of Rochester, priority 2010, published 2013).
Entries after “also recorded” stand apart in the source; their conditions may differ.

Tests used:
IRK = biological target: T1, IRK (Homo sapiens, UniProt P06213); experiment: IRK autophosphorylation in the presence of hBVR-derived peptides; format: biochemical; settings: 20 μM myristoylated hBVR-based peptide, 45 min, purified IRK
T1 construct: the intracellular kinase domain of the insulin receptor; purchased Biomol International (Plymouth, Pa.)
Method: FIGS. 13A-B show the effect of hBVR-derived peptides on autophosphorylation of IRK (FIG. 13A) and IRK kinase activity (FIG. 13B). Purified IRK was incubated in the absence or presence of 20 μM of the identified myristoylated hBVR-based peptides for 45 min in an assay system containing 50 mM Hepes pH 7.4, 20 mM MCl2,1 mM EGTA and 20 μM ATP labeled with 5 uCi gamma-P32-ATP. The reaction was stopped with the addition of phosphoric acid and aliquots were applied to P81 Whatman filters. Filters were extensively washed and subjected to counting in a scintillation counter. Total counts of radioactivity of each sample were corrected for non specific binding. […] Activity of IRK toward its substrate, IRS peptide, was tested in the presence of hBVR-based peptides. Experiments were conducted as in described for FIG. 13A with addition of IRS peptide as the substrate.
The effect of hBVR-derived peptides on autophosphorylation of IRK (FIG. 13A) and IRK kinase activity (FIG. 13B) was also investigated.

[1] = tested on: rat smooth muscle cells (PAC1); experiment: Glucose uptake in PAC1 cells (IGF-dependent); format: cell-based
Method: Glucose uptake was tested as described infra. Cells were starved in low glucose serum-depleted DMEM for 20 hours prior to transfer to PBS containing CaCl2, MgCl2. After 2 hrs myristoylated peptides were added to the medium for 2 hours. Thereafter, IGF-1 (50 ng/ml) or insulin (100 nM) was added (10 min) and glucose uptake was tested for 3 min in the presence of methyl-D-glucose,3-O-[methyl-3H]. Subsequently cells were washed 3 times in cold PBS and solubilized in NaOH (0.05 mM). Aliquots were measured for radioactivity. Non-specific binding or diffusion were tested by addition of 300 mM glucose to the cells. This value was deducted from the total counts (on the average <20%) and results were normalized for protein concentration.
(§1) FIGS. 15A-B show the effect of hBVR-based peptides on IGF-dependent glucose uptake in rat smooth muscle cells (PAC1) (FIG. 15A) and insulin-dependent glucose uptake in human epithelial kidney (HEK) cells (FIG. 15B). Cells were treated as described for FIG. 14 and glucose uptake was measured as described infra.
(§2) The therapeutic utility of various BVR peptides with regard to their ability to modify insulin and insulin growth factor (IGF) mediated cellular glucose uptake was evaluated. Human embryonic kidney cells (HEK293) or rat aortic smooth muscle cells (PAC) were starved in low glucose serum-depleted DMEM for twenty hours prior to transfer to PBS containing CaCl2, MgCl2. After two hours, myristoylated peptides were added to the medium for two additional hours. Thereafter, IGF-1 (50 ng/ml) or insulin (100 nM) was added (10 min) and glucose uptake was tested for three minutes in the presence of methyl-D-glucose,3-O-[methyl-3H]. Subsequently, cells were washed three times in cold PBS and solubilized in NaOH (0.05 mM). Aliquots were measured for radioactivity. Non-specific binding or diffusion was tested by addition of 300 mM glucose to the cells. This value was deducted from the total counts (on the average <20%) and results were normalized for protein concentration.

[2] = Blood glucose levels after tail vein injection; format: in vivo; settings: Sprague Dawley rats, 11 μg/g body weight, measured at 20, 40, 60, 100 min
Method: FIG. 16 is a graph illustrating the blood glucose levels measured over time course following tail vein injection to Sprague Dawley rats of the KKRILHC (SEQ ID NO: 60) peptide in solution (11 μg/g body weight) or a vehicle control solution.
In an experiment designed to evaluate the ability of the C-terminal KKRILHC BVR peptide fragment (SEQ ID NO: 60) to modulate insulin signaling and blood glucose levels, Sprague Dawley rats were administered, via tail vein injection, the KKRILHC peptide (SEQ ID NO: 60) in solution (11 μg/g body weight) or a vehicle control solution. […] This increase in blood glucose levels was at 20, 40, and 60 minutes following administration, gradually decreasing over the 100 minute time course of assessment.

[3] = tested on: human epithelial kidney (HEK) cells; experiment: Insulin-dependent glucose uptake in HEK cells; format: cell-based; settings: myristoylated peptide 2 h, then insulin 100 nM 10 min
Method: as §1, §2

T1 sequence (P06213 980-1382 limits assumed): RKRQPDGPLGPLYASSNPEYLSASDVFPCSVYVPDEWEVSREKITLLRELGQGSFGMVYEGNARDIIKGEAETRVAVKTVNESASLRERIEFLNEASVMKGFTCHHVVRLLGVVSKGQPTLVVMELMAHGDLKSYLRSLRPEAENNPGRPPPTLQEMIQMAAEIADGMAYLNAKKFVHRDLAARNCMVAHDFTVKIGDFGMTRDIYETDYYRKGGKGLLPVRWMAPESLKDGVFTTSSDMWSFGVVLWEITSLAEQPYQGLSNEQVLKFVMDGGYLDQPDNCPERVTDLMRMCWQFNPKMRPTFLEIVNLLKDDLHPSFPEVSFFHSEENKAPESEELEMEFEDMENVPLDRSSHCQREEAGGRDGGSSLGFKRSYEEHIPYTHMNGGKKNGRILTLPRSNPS

Row | Substance | IRK autophosphorylation (IRK) | effectiveness in enhancing cellular glucose uptake compared with IGF-1 ([1]; PAC1 cells, IGF-1 50 ng/ml) | cellular glucose uptake in PAC1 cells ([1]; myristoylated peptide 2 h, uptake of methyl-D-glucose,3-O-[methyl-3H] for 3 min) | blood glucose levels compared to vehicle controls [2] | insulin mediated cellular glucose uptake in HEK cells [3] | IGF-mediated cellular glucose uptake in PAC1 cells ([1]; myristoylated peptide 2 h, then IGF-1 50 ng/ml 10 min)
1 | KYCCSRK (Biliverdin reductase derived peptide) [C-terminal hBVR peptide, amino acids 290-296 of BVR; mimics insulin signaling] | increases IRK autophosphorylation | as effective as IGF-1 | enhances cellular glucose uptake in PAC1 cells in a dose-dependent manner; also recorded: increases glucose uptake in PAC1 cells in a concentration dependent manner |  |  | 
2 | KKRILHC (Biliverdin reductase derived peptide) [hBVR peptide, amino acids 275-281 of BVR] |  |  |  | immediate increase in the blood glucose levels | antagonizing insulin mediated cellular glucose uptake | inhibit IGF-mediated cellular glucose uptake
